According to patent US11208675B2, “Reaction accelerating agent” (Kikkoman Corporation, priority 2016, dated 2021):

Tests used:
[1] = target: T1, peroxidase PEO-301 (Toyobo Co., Ltd.) (Armoracia rusticana, UniProt P00433); assay: Hydrogen peroxide detection reaction mediated by peroxidase, completed using an excess of peroxidase (Example 1); format: biochemical; settings: 0.067 U/ml peroxidase, 0.48% (w/v) compound in second reagent, 0.00012% (w/v) hydrogen peroxide, DA-67, pH 6.5, 37° C.; for ΔA9 min: ΔA of A694/751, 9 minutes after mixing second reagent with first reagent-A; for ΔA10 min: ΔA of A694/751, 10 minutes after mixing second reagent with first reagent-A (defined as ΔA100%)
T1 construct: purchased Toyobo Co., Ltd. PEO-301
T1 sequence (P00433 31-338): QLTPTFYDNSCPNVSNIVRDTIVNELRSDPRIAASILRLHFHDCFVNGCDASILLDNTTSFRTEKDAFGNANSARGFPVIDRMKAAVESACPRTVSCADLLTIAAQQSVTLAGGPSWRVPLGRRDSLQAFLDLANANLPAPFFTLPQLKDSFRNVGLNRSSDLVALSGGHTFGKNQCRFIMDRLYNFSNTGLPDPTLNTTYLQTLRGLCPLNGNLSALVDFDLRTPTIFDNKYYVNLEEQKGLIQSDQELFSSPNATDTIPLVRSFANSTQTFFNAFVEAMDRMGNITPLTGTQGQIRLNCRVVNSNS
Description: In this Example the amount of change in absorbance was determined when hydrogen peroxide detection reaction was completed using an excess of peroxidase.
A reagent for hydrogen peroxide measurement having the following composition (formulation) was prepared, and the measurement of hydrogen peroxide was carried out using Bio Majesty JCA-BM1650 (manufactured by JEOL Ltd.).
(§1) 100 mM MOPS-NaOH buffer solution, pH 6.5
(§2) 0.00012% (w/v) hydrogen peroxide
(§3) 30 mM MOPS-NaOH buffer solution, pH 6.5
(§4) 0.2% (w/v) n-dodecyl-β-D-maltoside (manufactured by Dojindo Laboratories)
0.067 U/ml peroxidase PEO-301 (Toyobo Co., Ltd.)
(§5) 0.023 mM 10-(carboxymethylaminocarbonyl)-3,7-bis(dimethylamino)phenothiazine sodium (DA-67, manufactured by Wako Pure Chemical Industries, Ltd.)
0.48% (w/v) of the compound of Comparative Example 2 (Wako Pure Chemical Industries, Ltd.), any one compound of the present invention (all from Tokyo Chemical Industry Co., Ltd.), or compound-free (Comparative Example 1) ion-exchange water as shown in Table 1
(§6) 8 μl of the second reagent was added to 96 μl of the first reagent-A, and the mixture was incubated at 37° C. for 5 minutes. Then, 24 μl of the sample was added thereto, and the quantitative reaction of hydrogen peroxide was allowed to progress at 37° C. for 5 minutes. The absorbance (A694 and A751) of the reaction solution for light at wavelengths of 694 nm and 751 nm was measured over time for 10 minutes after the mixing of the second reagent with the first reagent-A to determine the value of subtraction of A751 from A694, i.e., the value of A694/751. Subsequently, ΔA was calculated by subtracting, from A694/751, the value of (104/128) times A694/751 4.8 minutes after the mixing of the second reagent with the first reagent-A. Incidentally, 4.8 minutes after the mixing of the second reagent with the first reagent-A represents the time immediately before the addition of the sample. ΔA 9 minutes and 10 minutes after the mixing of the second reagent with the first reagent-A (ΔA9 min and ΔA10 min) is shown in Table 1.
In other words, it can be understood that the quantitative reaction of hydrogen peroxide was completed in 10 minutes after the mixing of the second reagent with the first reagent-A. Accordingly, ΔA10 min in each Comparative Example or the present invention was defined as ΔA when 100% of the quantitative reaction of hydrogen peroxide progressed under each condition (ΔA100%).

[2] = target: T1, peroxidase PEO-301 (Toyobo Co., Ltd.); assay: Acceleration of hydrogen peroxide detection reaction mediated by peroxidase, using a small amount of peroxidase (Example 2); format: biochemical; settings: 0.013 U/ml peroxidase; for acceleration of hydrogen peroxide detection reaction using peroxidase: as shown in Table 2, compared with not added; for Degree of progression of reaction (%) after 7.5 minutes / Degree of progression of reaction (%) after 10 minutes: ΔA divided by ΔA100%, 0.48% (w/v) compound in second reagent, 37° C.; for Degree of progression of reaction (%) after 7.5 minutes: 7.5 minutes after mixing second reagent with first reagent-B (2.5 minutes after addition of sample); for Degree of progression of reaction (%) after 10 minutes: 10 minutes after mixing second reagent with first reagent-B (5 minutes after addition of sample)
Description: Next, in this Example, the degree of acceleration of hydrogen peroxide detection reaction by the compound of the present invention was determined using a small amount of peroxidase.
A reagent for Hydrogen peroxide measurement having the following composition was prepared, and the measurement of hydrogen peroxide was carried out using Bio Majesty JCA-BM1650 (manufactured by JEOL Ltd.).
as §1, §2, §3, §4
0.013 U/ml peroxidase PEO-301 (Toyobo Co., Ltd.)
as §5
0.48% (w/v) of the compound of Comparative Example 2, any one compound of the present invention, or compound-free (Comparative Example 1) ion-exchange water as shown in Table 2
as §6, with “reagent-B,” for “reagent-A,”, “reagent-B” for “reagent-A”, “reagent-B.” for “reagent-A.”, “sample.” for “sample. ΔA 9 minutes and 10 minutes after the mixing of the second reagent with the first reagent-A (ΔA9 min and ΔA10 min) is shown in Table 1.”
Next, ΔA calculated in this Example was divided by ΔA100% defined in Example 1 to calculate the degree of progression of hydrogen peroxide detection reaction. The degree of progression of hydrogen peroxide detection reaction 7.5 and 10 minutes after the mixing of the second reagent with the first reagent-B (in other words, 2.5 and 5 minutes, respectively, after the addition of the sample) is shown in Table 2.

| Compound | ΔA9 min [1] | ΔA10 min [1] | acceleration of hydrogen peroxide detection reaction using peroxidase [2] | Degree of progression of reaction (%) after 7.5 minutes [2] [%] | Degree of progression of reaction (%) after 10 minutes [2] [%] |
| --- | --- | --- | --- | --- | --- |
| O=C([O-])c1cc(N=Nc2cccc([N+](=O)[O-])c2)ccc1O.[Na+] [Alizarin Yellow GG] | 0.170 | 0.170 | accelerated | 64 | 89 |
| Chrome Yellow | 0.272 | 0.272 | accelerated | 66 | 92 |
| O=C([O-])C1=NN(c2ccc(S(=O)(=O)[O-])cc2)C(=O)C1N=Nc1ccc(S(=O)(=O)[O-])cc1.[Na+].[Na+].[Na+] (stereo not drawn) [Tartrazine, reference compound] | 0.344 | 0.344 | accelerated | 57 | 85 |
| O=C(O)c1cc2ccccc2c(N=Nc2c(O)cc(S(=O)(=O)O)c3ccccc23)c1O [2-hydroxy-1-(2-hydroxy-4-sulfo-1-naphthylazo)-3-naphthoic acid] | 0.084 | 0.085 | accelerated | 61 | 90 |
| Oc1ccc(N=Nc2ccccc2)cc1 [4-(Phenylazo)phenol, 4-(phenylazo)phenol] | 0.122 | 0.122 | accelerated | 69 | 90 |
| COc1cc(N=Nc2cccc(S(=O)(=O)[O-])c2)ccc1NC(=O)Nc1ccc(N=Nc2ccc(O)c(C(=O)[O-])c2)cc1.[Na+].[Na+] [Direct Yellow 44] | 0.228 | 0.228 | accelerated | 64 | 89 |
